Assays:
[1] = target: PKC-theta (Homo sapiens, UniProt Q04759); test: luciferase assay for inhibition of the kinase activity of PKC-theta; assay type: biochemical; settings: luciferase assay of US 2005/0124640
Method: The preparation of these compounds and the luciferase assay used to determine the IC50 for inhibition of the kinase activity of PKC-theta are described in US Patent Application Publication number 2005/0124640. For the in vitro and ex vivo assays above, compounds were dissolved in DMSO. T cells were pretreated with indicated concentrations of the inhibitors or DMSO control for 30 min at 37° C. and washed three times.

[2] = tested on: Treg cells purified from RA patients; test: Suppression of IFN-gamma from autologous Teff by Treg purified from RA patients; assay type: cell-based, human; settings: Treg from 25 RA patients, 1 microM 30 min, Treg/Teff 1:3, 24-48 h (FIG. 5d)
Method: Colitis was induced in C57BL/10.PL TCR alpha^−/−beta^−/− mice as described in Methods summary. 5a—numbers of mice were 5 (PBS), 8 (Teff), 7 (Teff/Treg control), 7 (Teff/Treg PKC-theta inhibitor). 5b-Histology slides of distal colon for the different groups. Normal histology is observed in PKC-theta treated mice. 5c, 5d-Freshly purified Treg from healthy donors and RA patients were treated or not with PKC-theta inhibitor for 30 min at 1 microM, washed three times, mixed with CD4^+CD25^− T cells at ratio 1:3, and plated on anti-CD3 mAb. The supernatants were analyzed for IFN-gamma after 24-48 hours. Combined data of three independent experiments are presented. % Treg-mediated inhibition was calculated as: 1−level of IFN-gamma in presence of Treg/level of IFN-gamma in absence of Treg)φ100%. P values were calculated by t-test. […]
(§1) CD4^+CD25^+ Treg and CD4^+CD25^− Teff cells were purified from the peripheral blood of healthy human donors or from 25 patients with Rheumatoid arthritis in different stages (accordingly to disease activity score (DAS)) as described in the literature M. L. Prevoo, et al., Arthritis and rheumatism, 1995, 38, 44; A. Zanin-Zhorov, et al., J. Clin. Invest, 2006, 116, 2022). […] Cytokine secretion was determined by ELISA as previously described A. Zanin-Zhorov, et al., ibid., 2006), using Human IFN-gamma Cytose™ (Biosource; Camarillo, Calif.). […]

[3] = tested on: CD4+CD25+ Treg cells; test: T cell transfer model of colitis with ex vivo treated Treg; assay type: in vivo, C57BL/10.PL TCR alpha-/-beta-/- mice; settings: inhibitor treated Treg
Method: Colitis was induced in C57BL/10.PL TCR alpha^−/−beta^−/− mice as described in Methods summary. 5a—numbers of mice were 5 (PBS), 8 (Teff), 7 (Teff/Treg control), 7 (Teff/Treg PKC-theta inhibitor). 5b-Histology slides of distal colon for the different groups. Normal histology is observed in PKC-theta treated mice. 5c, 5d-Freshly purified Treg from healthy donors and RA patients were treated or not with PKC-theta inhibitor for 30 min at 1 microM, washed three times, mixed with CD4^+CD25^− T cells at ratio 1:3, and plated on anti-CD3 mAb. The supernatants were analyzed for IFN-gamma after 24-48 hours. Combined data of three independent experiments are presented. % Treg-mediated inhibition was calculated as: 1−level of IFN-gamma in presence of Treg/level of IFN-gamma in absence of Treg)φ100%. P values were calculated by t-test.
Next, we determined the ability of PKC-theta inhibitor Ia to up-regulate Treg function in vivo using a colitis model in TCR alpha^−/−beta^−/− mice induced by transfer of effector CD4^+CD25^−CD45RB^+ Teff cells (F. Powrie, et al., J. Exp. Med. 1996, 183, 2669).
[…] Disease progression was monitored by body weight loss, diarrhea and histology analysis as previously described (F. Powrie, et al., J. Exp. Med. 1996, 183, 2669). P values were determined by Mann-Whitney test or two-tailed t-test by using the GraphPad Prism software (San Diego, Calif.).

[4] = tested on: CD4+CD25+ Treg cells; test: Treg/Teff co-culture on anti-CD3 mAb, IFN-gamma secretion by ELISA; assay type: cell-based, human
Method: (§2) Treg cells and CD4^+CD25^− Teff (non-Treg) cells were treated with Compound Ia at 0.001-1 microM (a-b) for 30 min, or at 1 microM for 0-60 min (c). Treated cells were mixed with CD4^+CD25^− T (Teff) cells at 1:9 ratio and plated on immobilized anti-CD3 mAb. The supernatants were analyzed for IFN-gamma after 24-48 hours (a and c). Cell proliferation was determined after 96 hours (b). Average of four different experiments is shown.
Treg were treated with 1 microM PKC-theta inhibitors with different IC50 values as indicated on graph. Treated cells were mixed with CD4^+CD25^− T (Teff) cells at 1:9 ratio and plated on immobilized anti-CD3 mAb. The supernatants were analyzed for IFN-gamma after 24-48 hours. An average of four different experiments is shown. As shown in the graph, the enhancement of suppressive effect on IFN-gamma secretion generally correlates with the potency of the inhibitors.
Treated Treg and non-Treg, or siRNA-transfected Treg were mixed with CD4^+CD25^− T (Teff) cells at 1:9 ratio and plated on immobilized anti-CD3 mAb. The supernatants were analyzed for IFN-gamma after 24-48 hours. An average of four different experiments is shown.
CD4^+CD25^+ regulatory T cells (Tregs) suppress the function of CD4^+ and CD8^+ effector cells (Teff) through an antigen receptor and cell contact mechanism. […] We investigated whether inhibition of PKC-theta may affect the suppressive function of human CD4^+CD25^+ Treg cells in vitro. For this purpose, we treated CD4^+CD25^+ Treg or CD4^+CD25^− Teff cells (Treg or non-Treg respectively in FIGS. 1a and 1b) with a specific PKC-theta inhibitor, namely, Compound Ia, washed and cultured the cells with untreated Teff cells in a ratio of 1:9 on stimulatory anti-CD3 antibodies. IFN-gamma secretion and cell proliferation were measured after 24 and 96 hours respectively. […] Moreover, the effect of PKC-theta inhibitor on Treg function was time-dependent; maximal levels of enhanced suppressive function were achieved after 30 min of Treg treatment with the compound (FIG. 1c).
as §1, with “Calif.). Proliferation was assessed by Alamar Blue™ assay (Invitrogen) as previously described (S. A. Ahmed, et al., J. immunological Methods, 1994, 170, 211-224).” for “Calif.).”

[5] = tested on: CD4+CD25+ Treg cells; test: Treg/Teff co-culture on anti-CD3 mAb, cell proliferation by Alamar Blue; assay type: cell-based, human; settings: Treg treated 0.001-1 microM 30 min, washed, Treg/Teff 1:9, anti-CD3; proliferation after 96 h (FIG. 1b)
Method: as §2
CD4^+CD25^+ regulatory T cells (Tregs) suppress the function of CD4^+ and CD8^+ effector cells (Teff) through an antigen receptor and cell contact mechanism. […] IFN-gamma secretion and cell proliferation were measured after 24 and 96 hours respectively. […]
as §1, with “Calif.). Proliferation was assessed by Alamar Blue™ assay (Invitrogen) as previously described (S. A. Ahmed, et al., J. immunological Methods, 1994, 170, 211-224).” for “Calif.).”

PKC-theta, sequence (Q04759 whole entry): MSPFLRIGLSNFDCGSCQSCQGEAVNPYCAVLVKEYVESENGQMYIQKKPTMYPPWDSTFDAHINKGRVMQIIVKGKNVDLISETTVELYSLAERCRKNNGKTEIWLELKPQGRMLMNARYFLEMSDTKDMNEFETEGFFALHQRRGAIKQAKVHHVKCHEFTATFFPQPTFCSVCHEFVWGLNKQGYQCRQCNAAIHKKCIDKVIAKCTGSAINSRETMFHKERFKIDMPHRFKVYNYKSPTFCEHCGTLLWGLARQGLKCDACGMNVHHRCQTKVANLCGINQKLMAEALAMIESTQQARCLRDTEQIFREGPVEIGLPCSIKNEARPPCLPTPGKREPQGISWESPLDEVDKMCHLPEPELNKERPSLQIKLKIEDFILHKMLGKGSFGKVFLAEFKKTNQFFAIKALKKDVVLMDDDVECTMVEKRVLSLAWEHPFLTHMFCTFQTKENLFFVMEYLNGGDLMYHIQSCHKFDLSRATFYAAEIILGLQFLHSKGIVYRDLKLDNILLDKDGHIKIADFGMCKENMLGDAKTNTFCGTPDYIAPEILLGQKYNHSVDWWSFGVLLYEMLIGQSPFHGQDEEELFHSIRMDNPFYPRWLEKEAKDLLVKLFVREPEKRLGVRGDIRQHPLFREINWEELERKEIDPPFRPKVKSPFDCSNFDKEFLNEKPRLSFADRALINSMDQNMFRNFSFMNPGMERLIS

In the case of `O=[N+]([O-])c1cnc(SCc2ccccc2Cl)nc1NCC1CCNCC1` [Ic], the IC50 [1] is reported as 8 nM.
For `N[C@H]1CC[C@H](CNc2nc(NCc3ccccc3OC(F)(F)F)ccc2[N+](=O)[O-])CC1` [Ie], the IC50 [1] was 1000 nM.
Compound `N[C@H]1CC[C@H](CNc2nc(NCc3ccccc3OC(F)(F)F)ncc2[N+](=O)[O-])CC1` [Ib] has an IC50 [1] of 1 nM.
`NC[C@H]1CC[C@H](CNc2nc(NCc3ccccc3OC(F)(F)F)ncc2[N+](=O)[O-])CC1` [Compound Ia] was tested, and the “suppressive function of Treg cells purified from RA patients (IFN-gamma)” value [2] was “significantly increased”, the “mice with normal weight gain and normal histology of the distal colon” value ([3]; 1:4 ratio of Treg/Teff) was 7 of 8 and the “protection of the recipient mice from colitis” value ([3]; 1:4 ratio of Treg/Teff (FIGS. 5a and 5b)) was about 100%. The IC50 [1] was 0.7 nM, the “induction of suppressive activity in treated Teff (non-Treg) added to untreated responder Teff” value ([4]; CD4+CD25- Teff treated, 1:9 ratio (FIGS. 1a and 1b)) was “does not induce suppressive activity” and the “suppressive ability of Treg cells (IFN-gamma production by Teff)” value ([4]; Treg treated 0.001-1 microM 30 min, washed, Treg/Teff 1:9, anti-CD3, IFN-gamma after 24 h (FIG. 1a)) was “significantly up-regulated”. For the same compound, the “treatment time for maximal levels of enhanced suppressive function” value ([4]; Treg treated at 1 microM for 0-60 min, IFN-gamma readout (FIG. 1c)) was 30 min, the “ability of Treg cells to inhibit IFN-gamma secretion in Teff cells” value ([4]; treated or siRNA-transfected Treg, Treg/Teff 1:9, 24-48 h (FIG. 4)) was “increased” and the “suppressive ability of Treg cells (cell proliferation)” value [5] was “significantly up-regulated”.
Work on `O=[N+]([O-])c1cnc(NCC2CCNCC2)nc1NCc1ccccc1OC(F)(F)F` [Id] yielded an IC50 [1] of 300 nM.
